Calls of active or inactive are those of the source. Bridge positions count the residues as written; N and C are the ends. Square brackets hold non-standard residues; d marks the D form. Peptide text beside a SMILES is read from it. NMeF = CN[C@@H](Cc1ccccc1)C(=O)O
How the values were obtained:
Mus musculus [1] = assay: Antinociceptive activity against icv dosed Kunming mouse model of thermal-induced nociception assessed as prolongation of tail-flick latency period measured up to 240 mins by tail-flick test; type: functional; conditions: time min <=240
[2] = Clearance in Kunming mouse at 868.1 nmol/kg, po measured up to 120 mins by LC-MS/MS analysis; type: ADME, organism-based; conditions: in vivo
[3] = Toxicity in Kunming mouse assessed as effect on arterial pH at 868.1 nmol/kg, po measured up to 30 mins by blood gas analyzer; type: organism-based; conditions: in vivo, 0.5 h
[4] = Cmax in Kunming mouse at 868.1 nmol/kg, po measured up to 120 mins by LC-MS/MS analysis; type: ADME, organism-based; design: route oral, dose 868.1 nmol/kg, time <=120; conditions: in vivo
Mus musculus [5] = assay: Antinociceptive activity against Kunming mouse model of thermal-induced nociception assessed as maximum possible effect at 8.68 nmol/kg, po measured after 20 min by tail flick test relative to control; type: functional
Mus musculus [6] = assay: Antinociceptive activity in Kunming mouse assessed as analgesic tolerance by measuring fold shift in maximal possible effect at 8.68 nmol/kg, po administered for 8 consecutive days by tail flick test; type: functional
Mus musculus [7] = assay: Antinociceptive activity against Kunming mouse model of thermal-induced nociception assessed as prolongation of tail-flick latency period at 8.68 nmol/kg, po in presence of NALM at 1 mg/kg, ip measured up to 240 mins by tail-flick test; type: functional, organism-based; conditions: time min <=240
[8] = biological target: T1, Neuropeptide FF receptor 2 (Homo sapiens, UniProt Q9Y5X5); assay: Agonist activity at NPFF2R (unknown origin) expressed in HEK293-A cells assessed as inhibition of forskolin-induced cAMP accumulation preincubated for 30 mins in presence of 3-isobutyl-1-methylxanthine followed by forskolin and compound addition by competitive PKA binding assay; type: functional, cell-based; conditions: read-out: EC50
[9] = biological target: Delta-type opioid receptor (Homo sapiens, UniProt P41143); assay: (§1) Agonist activity at DOR (unknown origin) expressed in HEK293-A cells assessed as inhibition of forskolin-induced cAMP accumulation preincubated for 30 mins in presence of 3-isobutyl-1-methylxanthine followed by forskolin and compound addition by competitive PKA binding assay relative to control; type: functional, cell-based; conditions: filed as agonist
[10] = MRT (0 to infinity) in Kunming mouse at 868.1 nmol/kg, po measured up to 120 mins by LC-MS/MS analysis; type: ADME, organism-based; conditions: in vivo
[11] = Toxicity in Kunming mouse assessed as effect on arterial bicarbonate level at 868.1 nmol/kg, po measured up to 30 mins by blood gas analyzer; type: organism-based; conditions: in vivo, 0.5 h
Mus musculus [12] = assay: Antinociceptive activity against po dosed Kunming mouse model of thermal-induced nociception assessed as prolongation of tail-flick latency period measured up to 240 mins by tail-flick test; type: functional; conditions: 4 h, time min <=240
Mus musculus [13] = assay: Antinociceptive activity against Kunming mouse model of thermal-induced nociception assessed as prolongation of tail-flick latency period at 0.87 nmol/kg, po in presence of RF9 at 5 mg/kg, ip measured up to 240 mins by tail-flick test; type: functional, organism-based; conditions: time min <=240
[14] = Cmax in Kunming mouse at 868.1 nmol/kg, iv measured up to 120 mins by LC-MS/MS analysis; type: ADME, organism-based; design: route intravenous, dose 868.1 nmol/kg, time <=120; conditions: in vivo
[15] = Absolute oral bioavailability in Kunming mouse at 868.1 nmol/kg measured up to 120 mins by LC-MS/MS analysis; type: ADME, organism-based; conditions: in vivo
[16] = AUC (0 to infinity) in Kunming mouse at 868.1 nmol/kg, iv measured up to 120 mins by LC-MS/MS analysis; type: ADME, organism-based; design: route intravenous, dose 868.1 nmol/kg, time <=120; conditions: in vivo, 2 h
[17] = AUC (0 to infinity) in Kunming mouse at 868.1 nmol/kg, po measured up to 120 mins by LC-MS/MS analysis; type: ADME, organism-based; design: route oral, dose 868.1 nmol/kg, time <=120; conditions: in vivo, 2 h
Mus musculus [18] = assay: Antinociceptive activity against Kunming mouse model of thermal-induced nociception assessed as prolongation of tail-flick latency period at 8.68 nmol/kg, sc in presence of Nal at 1 mg/kg, sc measured up to 240 mins by tail-flick test; type: functional, organism-based; conditions: time min <=240
Mus musculus [19] = assay: Antinociception activity in po dosed Kunming mouse model of sciatic nerve CCI-induced neuropathic pain assessed as reduction in mechanical hypersensitivity by measuring reduction in paw withdrawl threshold measured up to 180 mins by Von Frey test; type: functional; conditions: 3 h, time min <=180
[20] = biological target: T1, Neuropeptide FF receptor 2; assay: as §1, with “NPFF2R” for “DOR”, “accumulation by measuring maximal efficacy” for “accumulation”; type: functional, cell-based; conditions: filed as agonist
Mus musculus [21] = assay: Antinociceptive activity against Kunming mouse model of thermal-induced nociception assessed as prolongation of tail-flick latency period at 8.68 nmol/kg, sc in presence of beta-FNA at 1 mg/kg, sc measured up to 240 mins by tail-flick test; type: functional, organism-based; conditions: time min <=240
Mus musculus [22] = assay: Antinociceptive activity against Kunming mouse model of thermal-induced nociception assessed as prolongation of tail-flick latency period at 2 pmol, icv in presence of Nal measured up to 240 mins by tail-flick test; type: functional, organism-based; conditions: time min <=240
Mus musculus [23] = assay: Antinociceptive activity against Kunming mouse model of thermal-induced nociception assessed as prolongation of tail-flick latency period at 8.68 nmol/kg, sc in presence of NTI at 1 mg/kg, sc measured up to 240 mins by tail-flick test; type: functional, organism-based; conditions: time min <=240
[24] = Metabolic stability in mouse plasma assessed as degradation half life at 0.01 M measured up to 360 mins; type: ADME, cell-free
[25] = MRT (0 to infinity) in Kunming mouse at 868.1 nmol/kg, iv measured up to 120 mins by LC-MS/MS analysis; type: ADME, organism-based; conditions: in vivo
Mus musculus [26] = assay: Antinociceptive activity in Kunming mouse assessed as analgesic tolerance administered subcutaneously once daily for 8 days by tail flick test; type: functional, organism-based; conditions: time 8.0 day
Mus musculus [27] = assay: Antinociceptive activity against Kunming mouse model of thermal-induced nociception assessed as maximum possible effect at 8.68 nmol/kg, po measured after 60 min by tail flick test relative to control; type: functional; conditions: 1 h
Mus musculus [28] = assay: Antinociceptive activity against Kunming mouse model of thermal-induced nociception assessed as prolongation of tail-flick latency period at 8.68 nmol/kg, sc in presence of NALM at 5 nmol/kg, icv measured up to 240 mins by tail-flick test; type: functional, organism-based; conditions: time min <=240
Mus musculus [29] = assay: Antinociceptive activity against Kunming mouse model of thermal-induced nociception assessed as prolongation of tail-flick latency period at 8.68 nmol/kg, po in presence of NALM at 5 nmol, icv measured up to 240 mins by tail-flick test; type: functional, organism-based; conditions: time min <=240
Mu-type opioid receptor = Mu-type opioid receptor (Homo sapiens, UniProt P35372)
Mus musculus [30] = assay: Antinociceptive activity in po dosed Kunming mouse assessed as analgesic tolerance by measuring increase in maximal possible effect administered for 8 consecutive days by tail flick test (Rvb= 1.16 nmol/kg); type: functional
Mus musculus [31] = assay: Antinociceptive activity against Kunming mouse model of thermal-induced nociception assessed as prolongation of tail-flick latency period at 2 pmol, icv in presence of bet-FNA measured up to 240 mins by tail-flick test; type: functional, organism-based; conditions: time min <=240
Mus musculus [32] = assay: Antinociceptive activity against Kunming mouse model of thermal-induced nociception assessed as prolongation of tail-flick latency period at 8.68 nmol/kg, sc in presence of nor-BNI at 1 mg/kg, sc measured up to 240 mins by tail-flick test; type: functional, organism-based; conditions: time min <=240

T1 sequence (Q9Y5X5 whole entry): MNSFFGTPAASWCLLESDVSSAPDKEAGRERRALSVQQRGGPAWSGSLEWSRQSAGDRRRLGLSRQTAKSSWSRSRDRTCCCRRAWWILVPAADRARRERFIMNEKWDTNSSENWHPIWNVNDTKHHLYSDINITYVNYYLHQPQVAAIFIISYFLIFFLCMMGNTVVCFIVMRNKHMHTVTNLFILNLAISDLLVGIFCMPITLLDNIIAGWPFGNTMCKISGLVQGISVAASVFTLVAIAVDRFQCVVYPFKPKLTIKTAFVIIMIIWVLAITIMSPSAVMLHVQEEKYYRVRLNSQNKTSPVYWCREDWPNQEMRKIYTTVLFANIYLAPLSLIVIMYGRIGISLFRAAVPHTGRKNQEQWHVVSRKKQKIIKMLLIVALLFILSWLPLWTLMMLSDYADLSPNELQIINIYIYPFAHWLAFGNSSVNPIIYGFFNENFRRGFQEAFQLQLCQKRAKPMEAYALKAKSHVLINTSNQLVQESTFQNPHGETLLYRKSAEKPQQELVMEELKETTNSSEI
Delta-type opioid receptor, sequence (P41143 whole entry): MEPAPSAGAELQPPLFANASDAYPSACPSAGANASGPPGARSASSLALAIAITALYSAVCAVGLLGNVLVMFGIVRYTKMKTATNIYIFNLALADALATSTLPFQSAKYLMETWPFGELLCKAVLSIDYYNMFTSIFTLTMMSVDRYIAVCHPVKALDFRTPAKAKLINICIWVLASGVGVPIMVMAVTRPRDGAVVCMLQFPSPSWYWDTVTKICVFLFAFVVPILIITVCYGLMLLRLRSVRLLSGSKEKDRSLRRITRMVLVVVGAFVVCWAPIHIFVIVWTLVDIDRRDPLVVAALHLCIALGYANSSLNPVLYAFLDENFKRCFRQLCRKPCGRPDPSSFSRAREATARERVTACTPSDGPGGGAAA
Mu-type opioid receptor, sequence (P35372 whole entry): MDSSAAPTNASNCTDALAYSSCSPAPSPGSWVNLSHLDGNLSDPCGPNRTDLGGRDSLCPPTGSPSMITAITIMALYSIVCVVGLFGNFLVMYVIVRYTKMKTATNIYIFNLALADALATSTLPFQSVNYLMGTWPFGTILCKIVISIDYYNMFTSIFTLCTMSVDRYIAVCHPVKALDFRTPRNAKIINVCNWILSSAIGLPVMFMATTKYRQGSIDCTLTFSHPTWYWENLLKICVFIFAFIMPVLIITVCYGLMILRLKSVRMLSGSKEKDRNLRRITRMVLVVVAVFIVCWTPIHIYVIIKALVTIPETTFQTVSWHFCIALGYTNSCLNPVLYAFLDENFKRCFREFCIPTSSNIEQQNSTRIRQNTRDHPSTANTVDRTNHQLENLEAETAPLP

**Q.** For CN1C(=O)CNC(=O)[C@H](NC(=O)[C@@H](N)Cc2ccc(O)cc2)CCCCNC(=O)C[C@@H](C(=O)N2CCC[C@H]2C(=O)N[C@@H](CCC(N)=O)C(=O)N[C@@H](CCCNC(=N)N)C(=O)N[C@@H](Cc2ccccc2)C(N)=O)NC(=O)[C@@H]1Cc1ccccc1 (H-Y[dK]G[NMeF]DPQRF-NH2; lactam 2-5), which ED50 (Mus musculus [1]) is on record?
**A.** The ED50 was 0.63 pmol.

**Q.** What about the CL/F [2] of the same compound?
**A.** The CL/F was 130 mL/min/kg.

**Q.** And the Activity [3]?
**A.** The Activity was “Non-Toxic”.

**Q.** What about the Cmax [4] of the same compound?
**A.** Its Cmax is 215 ng/mL.

**Q.** What about the MPE (Mus musculus [5]) of the same compound?
**A.** Its MPE is 89.7%.

**Q.** What about the “fold change (FC)” value (Mus musculus [6]) of the same compound?
**A.** The value was 0.92.

**Q.** And the Activity (Mus musculus [7])?
**A.** The Activity was “inactive”.

**Q.** What about the EC50 [8] of the same compound?
**A.** The EC50 was 49.8 nM.

**Q.** What about the Emax [9] of the same compound?
**A.** The Emax was 56.1%.

**Q.** And the MRT inf [10]?
**A.** Its MRT inf is 279 min.

**Q.** And the Activity [11]?
**A.** The Activity was “Non-Toxic”.

**Q.** And the ED50 (Mus musculus [12])?
**A.** The ED50 was 0.00119 µmol/kg.

**Q.** What about the Activity (Mus musculus [13]) of the same compound?
**A.** The Activity was “Active”.

**Q.** And the Cmax [14]?
**A.** The Cmax was 5070 ng/mL.

**Q.** And the bioavailability [15]?
**A.** Its bioavailability is 43.8%.

**Q.** And the AUC [16]?
**A.** The AUC was 33297.7 µg·min/L.

**Q.** And the AUC [17]?
**A.** The AUC was 13800.8 µg·min/L.

**Q.** And the Activity (Mus musculus [18])?
**A.** Its Activity is “inactive”.

**Q.** And the ED50 (Mus musculus [19])?
**A.** Its ED50 is 0.00334 µmol/kg.

**Q.** What about the Emax [20] of the same compound?
**A.** The Emax was 59.5%.

**Q.** What about the Activity (Mus musculus [21]) of the same compound?
**A.** Its Activity is “inactive”.

**Q.** What about the Activity (Mus musculus [22]) of the same compound?
**A.** Its Activity is “inactive”.

**Q.** What about the Activity (Mus musculus [23]) of the same compound?
**A.** Its Activity is “Active”.

**Q.** What about the half-life at 10000 µM [24] of the same compound?
**A.** The half-life at 10000 µM was 45.4 min.

**Q.** What about the MRT inf [25] of the same compound?
**A.** Its MRT inf is 5 min.

**Q.** And the Activity (Mus musculus [26])?
**A.** The Activity was “inactive”.

**Q.** What about the MPE (Mus musculus [27]) of the same compound?
**A.** The MPE was 78.9%.

**Q.** And the Activity (Mus musculus [28])?
**A.** The Activity was “Active”.

**Q.** And the Activity (Mus musculus [29])?
**A.** The Activity was “Active”.

**Q.** What about the EC50 (Mu-type opioid receptor) of the same compound?
**A.** The EC50 was 93.5 nM.

**Q.** What about the ED50 (Mus musculus [30]) of the same compound?
**A.** Its ED50 is 0.00126 µmol/kg.

**Q.** What about the Activity (Mus musculus [31]) of the same compound?
**A.** The Activity was “inactive”.

**Q.** And the Activity (Mus musculus [32])?
**A.** The Activity was “inactive”.
